Patent US12428422B2, “Purine derivatives as SIK-3 inhibitors” (RHIZEN PHARMACEUTICALS AG, priority 2020, dated 2025)

Legend:
SIK3 (human) = SIK3 (human) (Homo sapiens, UniProt Q9Y2K2); assay: Enzymatic radiometric assay against human salt-inducible kinase-3 (SIK3); type: biochemical; details: at a concentration of 1 μM; read-out: inhibition of SIK-3 activity
Protocol: Assay 1: Determination of IC50 of Compound M1 Against Human Salt-Inducible Kinase-3 (SIK3) Using an Enzymatic Radiometric Assay
• SIK3 (human) was incubated with 8 mM MOPS pH 7.0, 0.2 mM EDTA, 100 uM of the peptide […] (Substrate), 10 mM Mg Acetate and [gamma-33P-ATP] (specific activity and concentration as required) in the presence of Compound M1. • The reaction was initiated by the addition of the Mg/ATP mix. • After incubation for 40 minutes at room temperature, the reaction was stopped by the addition of phosphoric acid to a concentration of 0.5%. • 10 μL of the reaction mixture was then spotted onto a P30 filtermat and washed four times for 4 minutes in 0.425% phosphoric acid and once in methanol prior to drying and scintillation counting. • The IC50 value was calculated using GraphPad Prism.

y isoform of PI3K = y isoform of PI3K (Homo sapiens, UniProt P48736); details: background statement; cited from earlier work
y isoform of PI3K, sequence (P48736 whole entry, canonical isoform): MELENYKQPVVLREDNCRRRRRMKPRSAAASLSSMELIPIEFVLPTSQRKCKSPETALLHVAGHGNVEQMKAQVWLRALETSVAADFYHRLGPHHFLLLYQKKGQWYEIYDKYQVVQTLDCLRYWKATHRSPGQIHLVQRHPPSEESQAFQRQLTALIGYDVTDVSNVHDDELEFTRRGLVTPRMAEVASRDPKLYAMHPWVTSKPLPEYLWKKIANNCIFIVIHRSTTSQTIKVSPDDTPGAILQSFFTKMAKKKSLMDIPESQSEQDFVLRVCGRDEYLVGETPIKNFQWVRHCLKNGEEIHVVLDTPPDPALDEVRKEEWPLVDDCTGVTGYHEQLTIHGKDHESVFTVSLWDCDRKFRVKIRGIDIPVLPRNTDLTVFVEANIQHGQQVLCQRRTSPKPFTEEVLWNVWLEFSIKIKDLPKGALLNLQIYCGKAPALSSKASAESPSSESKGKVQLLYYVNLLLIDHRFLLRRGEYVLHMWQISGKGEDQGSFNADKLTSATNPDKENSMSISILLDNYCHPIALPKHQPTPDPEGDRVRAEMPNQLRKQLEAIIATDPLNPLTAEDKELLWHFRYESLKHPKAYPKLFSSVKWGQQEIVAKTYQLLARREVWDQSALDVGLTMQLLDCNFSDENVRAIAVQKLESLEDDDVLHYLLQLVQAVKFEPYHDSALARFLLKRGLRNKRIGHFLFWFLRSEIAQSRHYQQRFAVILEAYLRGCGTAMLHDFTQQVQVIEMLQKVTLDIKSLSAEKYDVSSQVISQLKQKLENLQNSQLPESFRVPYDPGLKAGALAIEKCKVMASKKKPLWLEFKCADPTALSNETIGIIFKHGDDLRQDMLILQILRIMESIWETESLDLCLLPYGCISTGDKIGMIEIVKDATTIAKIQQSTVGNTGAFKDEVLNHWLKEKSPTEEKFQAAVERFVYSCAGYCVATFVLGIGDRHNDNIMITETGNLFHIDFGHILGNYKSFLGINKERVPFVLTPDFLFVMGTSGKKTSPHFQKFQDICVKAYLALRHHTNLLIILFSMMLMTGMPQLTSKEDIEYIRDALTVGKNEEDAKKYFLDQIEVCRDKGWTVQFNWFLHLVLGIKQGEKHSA

6 isoform of PI3K = 6 isoform of PI3K (Homo sapiens, UniProt O00329); details: background statement; cited from earlier work
6 isoform of PI3K, sequence (O00329 whole entry, canonical isoform): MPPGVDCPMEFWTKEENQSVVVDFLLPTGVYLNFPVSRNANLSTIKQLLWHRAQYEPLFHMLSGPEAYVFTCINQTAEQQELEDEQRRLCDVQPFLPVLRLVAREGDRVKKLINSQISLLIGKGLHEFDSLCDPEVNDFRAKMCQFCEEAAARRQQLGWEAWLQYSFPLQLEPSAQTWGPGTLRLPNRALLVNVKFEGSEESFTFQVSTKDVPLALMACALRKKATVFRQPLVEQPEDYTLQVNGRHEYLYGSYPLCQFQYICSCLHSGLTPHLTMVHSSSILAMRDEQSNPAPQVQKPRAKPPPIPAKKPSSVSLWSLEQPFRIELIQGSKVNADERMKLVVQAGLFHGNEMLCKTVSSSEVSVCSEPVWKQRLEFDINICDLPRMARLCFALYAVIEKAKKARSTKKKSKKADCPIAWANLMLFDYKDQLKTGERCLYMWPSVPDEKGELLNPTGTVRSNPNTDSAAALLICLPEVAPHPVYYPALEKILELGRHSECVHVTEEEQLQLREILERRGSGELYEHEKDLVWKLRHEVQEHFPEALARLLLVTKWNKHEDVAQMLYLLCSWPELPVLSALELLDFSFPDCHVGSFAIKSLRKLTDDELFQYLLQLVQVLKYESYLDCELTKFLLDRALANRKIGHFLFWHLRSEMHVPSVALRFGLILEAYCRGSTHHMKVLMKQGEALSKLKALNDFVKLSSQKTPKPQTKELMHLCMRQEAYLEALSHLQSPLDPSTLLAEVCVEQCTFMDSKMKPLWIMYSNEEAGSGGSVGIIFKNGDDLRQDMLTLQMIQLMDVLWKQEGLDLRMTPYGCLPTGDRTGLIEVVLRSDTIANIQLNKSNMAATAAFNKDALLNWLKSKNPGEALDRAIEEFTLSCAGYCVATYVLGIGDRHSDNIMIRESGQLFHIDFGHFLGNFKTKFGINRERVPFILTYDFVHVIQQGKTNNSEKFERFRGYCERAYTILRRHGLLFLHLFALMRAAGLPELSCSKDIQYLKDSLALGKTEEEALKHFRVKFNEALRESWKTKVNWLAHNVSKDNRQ
6 isoform of PI3K, sequence (P27986 whole entry partner, canonical isoform): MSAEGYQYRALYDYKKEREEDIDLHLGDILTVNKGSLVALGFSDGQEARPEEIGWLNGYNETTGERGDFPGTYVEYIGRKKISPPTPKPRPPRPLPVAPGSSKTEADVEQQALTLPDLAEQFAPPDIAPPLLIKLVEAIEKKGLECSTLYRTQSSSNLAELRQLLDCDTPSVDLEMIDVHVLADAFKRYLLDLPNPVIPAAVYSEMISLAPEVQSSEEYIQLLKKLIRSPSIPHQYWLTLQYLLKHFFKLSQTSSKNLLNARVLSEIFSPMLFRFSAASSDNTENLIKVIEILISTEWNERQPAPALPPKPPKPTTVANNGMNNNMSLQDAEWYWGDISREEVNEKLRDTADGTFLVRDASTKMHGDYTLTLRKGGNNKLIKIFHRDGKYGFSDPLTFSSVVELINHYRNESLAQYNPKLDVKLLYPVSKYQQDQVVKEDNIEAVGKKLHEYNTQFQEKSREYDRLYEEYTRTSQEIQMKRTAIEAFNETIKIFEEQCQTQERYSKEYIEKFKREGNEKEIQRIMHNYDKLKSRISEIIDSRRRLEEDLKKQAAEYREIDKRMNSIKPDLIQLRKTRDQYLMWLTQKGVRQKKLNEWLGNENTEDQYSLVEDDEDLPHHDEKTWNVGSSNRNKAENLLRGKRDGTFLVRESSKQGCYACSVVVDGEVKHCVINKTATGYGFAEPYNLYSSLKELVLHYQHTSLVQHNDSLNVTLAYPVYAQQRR

[1] = Pharmacokinetic evaluation of patient plasma samples from a human clinical trial; type: in vivo; details: metabolite is Compound M1

SIK3 (human), sequence (Q9Y2K2 whole entry): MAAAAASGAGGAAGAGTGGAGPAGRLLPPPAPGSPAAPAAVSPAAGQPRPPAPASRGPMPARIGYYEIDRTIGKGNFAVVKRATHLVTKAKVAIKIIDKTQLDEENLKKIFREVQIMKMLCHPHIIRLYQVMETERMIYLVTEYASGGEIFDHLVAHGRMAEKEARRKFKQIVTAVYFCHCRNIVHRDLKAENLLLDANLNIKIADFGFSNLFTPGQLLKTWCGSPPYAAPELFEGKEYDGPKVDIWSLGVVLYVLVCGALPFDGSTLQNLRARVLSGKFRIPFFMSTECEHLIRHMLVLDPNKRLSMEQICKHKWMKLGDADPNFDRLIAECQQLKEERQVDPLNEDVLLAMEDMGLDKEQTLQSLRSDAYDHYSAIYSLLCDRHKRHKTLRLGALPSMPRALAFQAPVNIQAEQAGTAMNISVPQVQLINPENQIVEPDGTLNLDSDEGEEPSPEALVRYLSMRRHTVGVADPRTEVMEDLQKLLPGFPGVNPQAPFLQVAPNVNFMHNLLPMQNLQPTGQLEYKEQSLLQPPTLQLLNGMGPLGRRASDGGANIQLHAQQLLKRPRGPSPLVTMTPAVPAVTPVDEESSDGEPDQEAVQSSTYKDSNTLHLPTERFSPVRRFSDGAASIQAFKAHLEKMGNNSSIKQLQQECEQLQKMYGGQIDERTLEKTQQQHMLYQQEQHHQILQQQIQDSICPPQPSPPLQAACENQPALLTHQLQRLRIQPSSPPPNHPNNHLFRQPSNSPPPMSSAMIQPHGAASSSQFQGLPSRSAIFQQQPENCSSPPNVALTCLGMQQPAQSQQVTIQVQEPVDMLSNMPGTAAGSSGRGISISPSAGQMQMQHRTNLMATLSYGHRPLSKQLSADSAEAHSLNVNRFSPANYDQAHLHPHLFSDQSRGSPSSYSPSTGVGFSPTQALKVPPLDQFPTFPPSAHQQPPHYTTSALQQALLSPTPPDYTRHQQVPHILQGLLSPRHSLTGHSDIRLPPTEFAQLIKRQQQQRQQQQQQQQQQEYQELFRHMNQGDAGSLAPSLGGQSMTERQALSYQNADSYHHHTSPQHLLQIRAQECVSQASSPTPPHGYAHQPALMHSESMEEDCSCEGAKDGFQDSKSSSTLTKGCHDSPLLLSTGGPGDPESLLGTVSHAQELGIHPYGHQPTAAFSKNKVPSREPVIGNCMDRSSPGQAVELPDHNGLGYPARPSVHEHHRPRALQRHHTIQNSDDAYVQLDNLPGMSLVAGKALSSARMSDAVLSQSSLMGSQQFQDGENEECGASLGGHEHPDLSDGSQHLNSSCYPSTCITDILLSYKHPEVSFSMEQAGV

| SMILES | inhibition at 1 µM (SIK3 (human)) [%] | potency against the 7 isoform of PI3K (y isoform of PI3K) | potency against the 6 isoform of PI3K (6 isoform of PI3K) | metabolism in patients (metabolite formation) [1] |
| --- | --- | --- | --- | --- |
| CC[C@@H](Nc1ncnc2[nH]c(O)nc12)c1oc2ccccc2c(=O)c1-c1cccc(F)c1 [Compound M2, (R)-3-(3-fluorophenyl)-2-(1-((8-hydroxy-9H-purin-6-yl)amino)propyl)-4H-chromen-4-one] | 100 | – | – | – |
| CC[C@H](Nc1ncnc2nc[nH]c12)c1oc2ccccc2c(=O)c1-c1cccc(F)c1 [Tenalisib, 3-(3-fluorophenyl)-2-[(1S)-1-(7H-purin-6-ylamino)propyl]-chromen-4-one] | – | nanomolar potency | nanomolar potency | underwent metabolism to produce in some subjects |
